According to ChEMBL document CHEMBL3603776, “2-Phenoxy-1,4-naphthoquinones: From a Multitarget Antitrypanosomal to a Potential Antitumor Profile” (J Med Chem, 2015):
Active and inactive are the calls of the source. The rule behind the calls is not given here.

Assays:
Leishmania donovani = experiment: Antitrypanosomal activity against amastigotes of Leishmania donovani MHOM/ET/67/L82 after 72 hrs by inverted microscope analysis; format: functional, organism-based; conditions: MHOM/ET/67/L82, 72 h
[1] = Selectivity index, ratio of IC50 for rat L6 cells to IC50 for amastigotes of Leishmania donovani MHOM/ET/67/L82; format: toxicity, cell-based; conditions: read-out: Ratio IC50
L6 = experiment: Cytotoxicity against rat L6 cells after 72 hrs by alamar blue assay; format: cell-based; conditions: L6, 72 h
Trypanosoma brucei = experiment: Inhibition of recombinant Trypanosoma brucei GAPDH assessed as oxidative phosphorylation of D-glyceraldehyde-3-phosphate to 1,3-bisphosphoglycerate at 5 uM by spectrophotometric method relative to 2-phenoxy-1,4-naphthoquinone
Bos taurus [2] = organism: Bos taurus; experiment: Inhibition of electron transport protein complex 1 in bovine hear mitochondria assessed as enzyme activity per min/mg of protein using […] as substrate at 10 uM
[3] = Inhibition of recombinant Trypanosoma brucei GAPDH assessed as oxidative phosphorylation of D-glyceraldehyde-3-phosphate to 1,3-bisphosphoglycerate by spectrophotometric method
[4] = molecular target: Glyceraldehyde-3-phosphate dehydrogenase (Homo sapiens, UniProt P04406); experiment: Inhibition of recombinant human GAPDH assessed as oxidative phosphorylation of D-glyceraldehyde-3-phosphate to 1,3-bisphosphoglycerate by spectrophotometric method
[5] = Cytotoxicity against HDF after 24 hrs by MTT assay; conditions: Homo sapiens
IGROV-1 [6] = experiment: Cytotoxicity against human IGROV1 cells after 24 hrs by MTT assay; format: functional, cell-based; conditions: IGROV-1, 24 h
HT-29 [7] = experiment: Cytotoxicity against human HT-29 cells after 24 hrs by MTT assay; format: functional, cell-based; conditions: HT-29, 24 h
IGROV-1 [8] = experiment: Selectivity index, ratio of IC50 for HDF to IC50 for human IGROV1 cells
HT-29 [9] = experiment: Selectivity index, ratio of IC50 for HDF to IC50 for human HT-29 cells
Bos taurus [10] = organism: Bos taurus; experiment: Inhibition of electron transport protein complex 1 in bovine hear mitochondria assessed as reduction of NADH-induced oxygen consumption at 5 uM
Bos taurus [11] = organism: Bos taurus; experiment: Inhibition of electron transport protein complex 2 in bovine hear mitochondria assessed as reduction of succinate-induced oxygen consumption at 5 uM
Bos taurus [12] = organism: Bos taurus; experiment: Inhibition of electron transport protein complex 1 in bovine hear mitochondria assessed as reduction of NADH-induced ROS production at 10 uM by fluorescence plate reader analysis
[13] = system: Trypanosoma brucei rhodesiense; experiment: Antitrypanosomal activity against bloodstream forms of Trypanosoma brucei rhodesiense STIB 900 after 72 hrs by alamar blue assay; format: functional, organism-based; conditions: STIB 900, 72 h
[14] = Selectivity index, ratio of IC50 for rat L6 cells to IC50 for bloodstream forms of Trypanosoma brucei rhodesiense STIB 900; format: toxicity, cell-based; conditions: read-out: Ratio IC50
Bos taurus [15] = organism: Bos taurus; experiment: Inhibition of electron transport protein complex 1 in bovine hear mitochondria assessed as reduction of NADH-induced oxygen consumption up to 10 uM

Glyceraldehyde-3-phosphate dehydrogenase, sequence (P04406 whole entry): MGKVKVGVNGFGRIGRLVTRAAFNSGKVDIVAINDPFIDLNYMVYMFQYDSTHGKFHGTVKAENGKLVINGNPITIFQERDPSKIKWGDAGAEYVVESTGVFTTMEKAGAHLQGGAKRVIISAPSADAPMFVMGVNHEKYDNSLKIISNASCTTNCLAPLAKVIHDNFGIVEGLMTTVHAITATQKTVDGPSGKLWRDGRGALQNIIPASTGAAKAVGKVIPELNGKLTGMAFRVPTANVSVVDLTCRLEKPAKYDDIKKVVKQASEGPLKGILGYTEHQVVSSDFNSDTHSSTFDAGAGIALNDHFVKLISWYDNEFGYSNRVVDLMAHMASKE

inhibition (Trypanosoma brucei)	IC50 [4]	inhibition (Bos taurus [11])	IC50 [13]	SMILES	IC50 (Leishmania donovani)	selectivity ratio [1]	IC50 (L6)	Activity (Bos taurus [2])	IC50 [3]	IC50 [5]	IC50 (IGROV-1 [6])	IC50 (HT-29 [7])	Ratio IC50 (IGROV-1 [8])	Ratio IC50 (HT-29 [9])	inhibition (Bos taurus [10])	inhibition (Bos taurus [12])	selectivity ratio [14]	inhibition (Bos taurus [15])
92%	1.41 µM	inactive	0.38 µM	COc1ccc(OC2=CC(=O)c3cc4ccccc4cc3C2=O)cc1	2.55 µM	0.09	0.24 µM	0.029 µmol/min/mg	15.6 µM	17.1 µM	2.31 µM	3.83 µM	7.4	4.46	40%	Active	0.63	–
–	0.59 µM	–	–	O=C1C=C(Oc2ccccc2)C(=O)c2ccccc21	–	–	–	0.052 µmol/min/mg	5.73 µM	9.84 µM	3.43 µM	4.4 µM	2.87	2.24	–	Active	–	inactive
